Source: ChEMBL document CHEMBL3244128, “Aromatic esters of nonquaternary carbon-4 piperidinols as analgesics” (J Med Chem, 1978)
Active and inactive are the calls of the source. The calls are words filed in the database; no cut-off is given here.

What was measured:
Mus musculus [1] = assay: Analgesic activity in sc dosed mouse by hot-plate method; type: functional
Mus musculus [2] = assay: Analgesic activity in sc dosed mouse by Nilsen method; type: functional
Mus musculus [3] = assay: Analgesic activity in mouse at 20 mg/kg, sc by Nilsen method; type: functional, organism-based; parameters: dose 20 mg/kg
Mus musculus [4] = assay: Toxicity in mouse at 20 mg/kg, sc; type: organism-based; parameters: dose 20 mg/kg, route subcutaneous; conditions: in vivo
Mus musculus [5] = assay: Toxicity in mouse at 1.56 to 25 mg/kg, sc; type: organism-based; parameters: dose 1.56-25 mg/kg, route subcutaneous; conditions: in vivo
Mus musculus [6] = assay: Toxicity in mouse at 54.5 mg/kg, sc; type: organism-based; parameters: dose 54.5 mg/kg, route subcutaneous; conditions: in vivo
Mus musculus [7] = assay: Toxicity in mouse at 1.25 to 20 mg/kg, sc; type: organism-based; parameters: dose 1.25-20 mg/kg, route subcutaneous; conditions: in vivo
Mus musculus [8] = assay: Toxicity in mouse at 5 to 40 mg/kg, sc; type: organism-based; parameters: dose 5-40 mg/kg, route subcutaneous; conditions: in vivo
Rhesus monkey [9] = assay: Toxicity in monkey assessed as morphine-like physical dependence liability at 2 to 4 mg/kg; type: organism-based, Macaca mulatta; parameters: dose 2-4 mg/kg; conditions: in vivo
Rhesus monkey [10] = assay: Toxicity in nonwithdrawn monkey assessed as nausea at 4 mg/kg; type: organism-based, Macaca mulatta; parameters: dose 4 mg/kg; conditions: in vivo
Rhesus monkey [11] = assay: Toxicity in nonwithdrawn monkey assessed as nausea and piloerection at 8 mg/kg; type: organism-based, Macaca mulatta; parameters: dose 8 mg/kg; conditions: in vivo
Rhesus monkey [12] = assay: Toxicity in nonwithdrawn monkey assessed as precipitation of abstinence sign at 8 mg/kg; type: organism-based, Macaca mulatta; parameters: dose 8 mg/kg; conditions: in vivo
Rhesus monkey [13] = assay: Toxicity in nonwithdrawn monkey assessed as convulsion at 16 mg/kg up to 5 mins; type: organism-based, Macaca mulatta; parameters: dose 16 mg/kg; conditions: in vivo
Rhesus monkey [14] = assay: Toxicity in nonwithdrawn monkey assessed as retching, vomiting and preconvulsive appearance at 16 mg/kg up to 5 mins; type: organism-based, Macaca mulatta; parameters: dose 16 mg/kg; conditions: in vivo
Mus musculus [15] = assay: Analgesic activity in mouse at 20 mg/kg, sc by hot-plate method; type: functional, organism-based; parameters: dose 20 mg/kg
[16] = target: Opioid receptor (Rattus norvegicus) (UniProt P33533+P34975+P33535); assay: Displacement of [3H]dihydromorphine from opiate receptor in rat brain homogenates; type: tissue-based
Mus musculus [17] = assay: Analgesic activity in mouse at 50 mg/kg, sc by hot-plate method; type: functional, organism-based; parameters: dose 50 mg/kg

Sequence of Opioid receptor (Rattus norvegicus) (P33533 whole entry, looked up): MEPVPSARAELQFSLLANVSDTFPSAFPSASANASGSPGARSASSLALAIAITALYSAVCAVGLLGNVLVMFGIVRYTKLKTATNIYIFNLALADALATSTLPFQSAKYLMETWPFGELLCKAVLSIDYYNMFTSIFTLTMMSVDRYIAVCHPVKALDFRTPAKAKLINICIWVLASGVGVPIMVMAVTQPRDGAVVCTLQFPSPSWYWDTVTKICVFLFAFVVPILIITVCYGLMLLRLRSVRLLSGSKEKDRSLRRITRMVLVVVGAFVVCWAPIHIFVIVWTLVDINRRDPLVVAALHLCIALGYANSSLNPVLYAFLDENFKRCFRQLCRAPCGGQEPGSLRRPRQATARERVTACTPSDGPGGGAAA
Sequence of Opioid receptor (Rattus norvegicus) (P33535 whole entry, looked up): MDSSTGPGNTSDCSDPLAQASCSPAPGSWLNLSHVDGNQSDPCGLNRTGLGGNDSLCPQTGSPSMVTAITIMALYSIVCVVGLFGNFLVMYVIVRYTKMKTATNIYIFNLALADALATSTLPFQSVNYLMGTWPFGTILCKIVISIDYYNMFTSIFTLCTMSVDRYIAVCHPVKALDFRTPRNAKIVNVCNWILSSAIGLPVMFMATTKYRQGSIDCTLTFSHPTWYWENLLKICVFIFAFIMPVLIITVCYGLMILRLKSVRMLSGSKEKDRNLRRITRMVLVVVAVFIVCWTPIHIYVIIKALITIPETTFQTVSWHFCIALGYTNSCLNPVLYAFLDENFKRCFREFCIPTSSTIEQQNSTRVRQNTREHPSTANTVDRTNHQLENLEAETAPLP
Sequence of Opioid receptor (Rattus norvegicus) (P34975 whole entry, looked up): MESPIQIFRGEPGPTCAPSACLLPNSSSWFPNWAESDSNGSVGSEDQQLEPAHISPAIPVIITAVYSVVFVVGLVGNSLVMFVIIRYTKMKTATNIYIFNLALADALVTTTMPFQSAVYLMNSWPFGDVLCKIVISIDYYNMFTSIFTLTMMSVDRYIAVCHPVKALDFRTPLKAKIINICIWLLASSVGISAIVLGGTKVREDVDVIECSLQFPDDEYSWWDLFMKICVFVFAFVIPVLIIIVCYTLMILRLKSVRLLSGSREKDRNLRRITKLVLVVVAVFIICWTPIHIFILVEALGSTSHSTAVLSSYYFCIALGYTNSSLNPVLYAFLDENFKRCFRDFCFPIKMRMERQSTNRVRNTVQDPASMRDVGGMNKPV

Compound | ED50 (Mus musculus [1]) | other results
CN1CCC(OC(=O)c2ccc(Cl)c(Cl)c2)CC1 | 27.1 mg/kg | –
COc1ccc(CCC(=O)OC2CCN(C)CC2)cc1OC | 30.7 mg/kg | ED50 (Mus musculus [2]): 32 mg/kg
CCOC(=O)[C@@H]1CN(C)CC[C@@H]1OC(=O)c1ccc(OC)c(OC)c1 (relative stereo) | 4 mg/kg | ED50 (Mus musculus [3]): Active; Activity (Mus musculus [4]): Toxic
Cc1ccc(C(=O)OC2CCN(C)CC2)cc1F | 13.9 mg/kg | –
Cc1ccc(C)c(C(=O)OC2CCN(C)CC2)c1 | 12.5 mg/kg | –
COc1ccccc1C(=O)OC1CCN(C)CC1 | 10.6 mg/kg | –
Cc1[nH]c(C)c(C(=O)OC2CCN(C)CC2)c1C | 4.9 mg/kg | ED50 (Mus musculus [2]): 7.1 mg/kg
COc1cc(OC)c(C(=O)OC2CCN(C)CC2)c(OC)c1 | 11.6 mg/kg | –
CN1CCC(OC(=O)c2cccc(O)c2)CC1 | 16.6 mg/kg | –
COc1cc(OC)cc(C(=O)OC2CCN(C)CC2)c1 | 9.3 mg/kg | –
Cc1cccc(C(=O)OC2CCN(C)CC2)c1 | inactive | –
COc1ccc(C(=O)OC2CCN(C)CC2)cc1OC | 3.9 mg/kg | ED50 (Mus musculus [2]): 13.1 mg/kg; Activity (Mus musculus [5]): Non-toxic; Activity (Mus musculus [6]): Non-toxic; Activity (Mus musculus [7]): Non-toxic; Activity (Mus musculus [8]): Non-toxic; Activity (Rhesus monkey [9]): Non-toxic; Activity (Rhesus monkey [10]): Toxic; Activity (Rhesus monkey [11]): Toxic; Activity (Rhesus monkey [12]): Non-toxic; Activity (Rhesus monkey [13]): Toxic; Activity (Rhesus monkey [14]): Toxic
CN1CCC(OC(=O)Cc2ccccc2)CC1 | inactive | –
CCOC(=O)[C@H]1CN(C)CC[C@@H]1OC(=O)c1ccc(OC)c(OC)c1 (relative stereo) | 11.8 mg/kg | –
CN1CCC(OC(=O)c2cc(I)cc(I)c2I)CC1 | inactive | –
CN1CCC(OC(=O)c2ccc3c(c2)OCO3)CC1 | 7.3 mg/kg | –
CN1CCC(OC(=O)c2cccc(F)c2)CC1 | 15.1 mg/kg | –
Cc1ccc(C(=O)OC2CCN(C)CC2)cc1C | – | Analgesic activity (active/inactive) (Mus musculus [15]): Active
Cc1cc(C)cc(C(=O)OC2CCN(C)CC2)c1 | 24.4 mg/kg | –
CC(C(=O)OC1CCN(C)CC1)c1ccccc1 (stereo unspecified) | 25.4 mg/kg | –
CN1CCC(OC(=O)c2ccccc2)CC1 | 9.6 mg/kg | –
CN1CCC(OC(=O)C2c3ccccc3-c3ccccc32)CC1 | inactive | –
Cc1cc(C)c(C(=O)OC2CCN(CCc3ccccc3)CC2)c(C)c1 | 37 mg/kg | –
CN1CCC(OC(=O)c2ccccc2F)CC1 | 10.6 mg/kg | –

Compound | ED50 (Mus musculus [1]) | other results
COc1ccc(C(=O)O[C@H]2CCN(C)C[C@H]2C)cc1OC (relative stereo) | – | Analgesic activity (active/inactive) (Mus musculus [15]): Active; K [16]: > 100 µM
Cc1ccc(C(=O)OC2CCN(C)CC2)cc1 | 18.2 mg/kg | –
COc1cccc(C(=O)OC2CCN(C)CC2)c1OC | 8.9 mg/kg | ED50 (Mus musculus [2]): 19.6 mg/kg
Cc1cc(C)c(C(=O)OC2CCN(C)CC2)cc1C | 20 mg/kg | –
CCOc1ccccc1C(=O)OC1CCN(C)CC1 | – | Analgesic activity (active/inactive) (Mus musculus [15]): Active
COc1cccc(OC)c1C(=O)OC1CCN(C)CC1 | 73.8 mg/kg | –
CN1CCC(OC(=O)c2ccccc2CCc2ccccc2)CC1 | – | ED50 (Mus musculus [17]): Active
COc1ccc(C(=O)O[C@H]2CCN(C)C[C@@H]2C)cc1OC | 8.3 mg/kg | K [16]: > 100 µM
CCC(=O)OC1CCN(C)CC1 | 20.2 mg/kg | –
CN1CCC(OC(=O)c2ccccc2Oc2ccccc2)CC1 | – | Analgesic activity (active/inactive) (Mus musculus [15]): Active
CN1CCC(OC(=O)c2ccc(F)cc2)CC1 | 11.5 mg/kg | –
CN1CCC(OC(=O)C23CC4CC(CC(C4)C2)C3)CC1 | 15.9 mg/kg | –
CN1CCC(OC(=O)c2ccc(C(C)(C)C)cc2)CC1 | 23.3 mg/kg | –
Cc1cccc(C)c1C(=O)OC1CCN(C)CC1 | 15.2 mg/kg | –
COc1ccc2c3c1O[C@H]1[C@@H](O)C=C[C@H]4[C@@H](C2)N(C)CC[C@@]341 [CODEINE] | 7.5 mg/kg | ED50 (Mus musculus [2]): 4.5 mg/kg
COc1cc(C(=O)OC2CCN(C)CC2)ccc1C | 11.9 mg/kg | –
Cc1cc(C)c(C(=O)OC2CCN(C)CC2)c(C)c1 | 8.3 mg/kg | ED50 (Mus musculus [2]): 46 mg/kg
COc1ccc(C(=O)OC2CCN(C)CC2)cc1 | 10.5 mg/kg | –
COc1cccc(C(=O)OC2CCN(C)CC2)c1 | 6.1 mg/kg | Activity (Mus musculus [5]): Non-toxic; Activity (Mus musculus [6]): Non-toxic
Cc1ccccc1C(=O)OC1CCN(C)CC1 | 8.9 mg/kg | –
CN1CCC(OC(=O)CCCc2ccccc2)CC1 | inactive | –
CN1CC[C@]23c4c5ccc(O)c4O[C@H]2[C@@H](O)C=C[C@H]3[C@H]1C5 [MORPHINE] | 1.2 mg/kg | ED50 (Mus musculus [2]): 0.8 mg/kg
CN1CCC(OC(=O)/C=C/c2ccccc2)CC1 | 16.2 mg/kg | –
COc1cc(C(=O)OC2CCN(C)CC2)cc(OC)c1OC | 15.4 mg/kg | –
